How the values were obtained:
[1] = system: Intracranial medulloblastoma model (conditional Patchedl null) mice; experiment: Survival of intracranial medulloblastoma model mice; assay type: in vivo, mouse; settings: FIG. 13; 20 mg/kg daily; monitored for 50 days; versus vehicle only
Procedure: The results of the in vivo experiment depicted in FIG. 12 predicted that Shh antagonists would have a positive effect on a mouse model of cancer. Intracranial medulloblastoma model (conditional Patchedl null) mice used in this experiment develop medulloblastoma with an early onset and 100% penetrance. Accordingly, mice were injected daily with 20 mg/kg of either A) vehicle plus IPI-926 (n=12); or B) vehicle only (n=11). The mice were monitored for 50 days for survival, and the results depicted in FIG. 13.

mouse tumor = experiment: Mouse tumor injected with doxorubicin and control; fluorescent imaging of the apoptosis signal; assay type: in vivo; settings: FIG. 14; excitation 640 nm, emission 720 nm of the dye; versus control injection
Procedure: FIG. 14 depicts the use of various indicator dyes according to the method, to monitor spatially restricted delivery of compounds and resulting localized effects on regions of a tumor. A mouse tumor was injected with 1. doxorubicin; and 2. a control. Panel A illustrates excitation at 640 nm and emission at 800 nm of the dye. Panel B illustrates the doxorubicin signal (3.) observed after excitation at 500 nm and emission at 600 nm of doxorubicin. Panel C illustrates an apoptosis signal (4.) observed after excitation at 640 nm and emission at 720 nm of the dye.

lymphoma tumor = experiment: Doxorubicin delivered to a lymphoma tumor with a needle array; excised tumor slices imaged by fluorescence and brightfield microscopy; assay type: in vivo
Text: Doxorubicin was delivered to a lymphoma tumor using a needle array of the method. The tumor was then excised and sectioned. […] Regions of doxorubicin fluorescence and cell death are localized to a zone within the tumor slice, reflecting spatially constrained doxorubicin delivery.

Row | SMILES | survival [1] | apoptosis signal (mouse tumor) | cell death in tumor slice, relative to doxorubicin fluorescence (lymphoma tumor; FIG. 8, one tumor slice, needle array delivery) | cell death across tumor depths (lymphoma tumor; FIG. 9, three cross-sectional slices from different depths)
1 | CC1=C2C[C@H]3[C@@H](CC[C@@H]4C[C@H](NS(C)(=O)=O)CC[C@@]43C)[C@@H]2CC[C@@]2(C1)O[C@@H]1C[C@H](C)CN[C@H]1[C@H]2C [IPI-926] | significantly increased survival | – | – | –
2 | COc1cccc2c1C(=O)c1c(O)c3c(c(O)c1C2=O)C[C@@](O)(C(=O)CO)C[C@@H]3O[C@H]1C[C@H](N)[C@H](O)[C@H](C)O1 [Doxorubicin] | – | apoptosis overlaps with the region that received doxorubicin | doxorubicin fluorescence overlaps with the region of dead cells | Cell death was observed in a localized area across the three tumor depths
